Legend:
[1] = Aqueous solubility of the compound at pH 1.2; assay type: physicochemical
Cytochrome P450 2C19 = Cytochrome P450 2C19 (Homo sapiens, UniProt P33261); assay: Inhibition of CYP2C19 in human liver microsomes using (S)-mephenytoin as substrate after 10 mins in presence of NADPH by LC/MS/MS analysis; assay type: ADME
[2] = Aqueous solubility of the compound at pH 7.4; assay type: physicochemical
Cytochrome P450 2C9 = Cytochrome P450 2C9 (Homo sapiens, UniProt P11712); assay: Inhibition of CYP2C9 in human liver microsomes using diclofenac as substrate after 10 mins in presence of NADPH by LC/MS/MS analysis; assay type: ADME
Cytochrome P450 2C9, sequence (P11712 whole entry): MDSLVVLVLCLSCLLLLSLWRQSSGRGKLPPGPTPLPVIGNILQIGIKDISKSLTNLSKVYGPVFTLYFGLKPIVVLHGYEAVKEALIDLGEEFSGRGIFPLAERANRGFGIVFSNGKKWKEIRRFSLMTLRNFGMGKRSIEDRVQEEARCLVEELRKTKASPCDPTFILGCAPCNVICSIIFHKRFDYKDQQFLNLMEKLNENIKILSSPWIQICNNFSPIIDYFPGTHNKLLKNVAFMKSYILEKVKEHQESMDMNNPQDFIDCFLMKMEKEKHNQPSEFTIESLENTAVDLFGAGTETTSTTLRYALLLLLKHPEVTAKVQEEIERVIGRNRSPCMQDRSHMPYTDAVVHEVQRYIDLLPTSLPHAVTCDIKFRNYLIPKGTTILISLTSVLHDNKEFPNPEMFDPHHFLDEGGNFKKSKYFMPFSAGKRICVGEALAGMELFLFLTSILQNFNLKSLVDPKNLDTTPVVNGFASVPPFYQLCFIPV

Cytochrome P450 3A4 = Cytochrome P450 3A4 (Homo sapiens, UniProt P08684); assay: Inhibition of CYP3A4 in human liver microsomes using midazolam as substrate after 10 mins in presence of NADPH by LC/MS/MS analysis; assay type: ADME
Cytochrome P450 3A4, sequence (P08684 whole entry): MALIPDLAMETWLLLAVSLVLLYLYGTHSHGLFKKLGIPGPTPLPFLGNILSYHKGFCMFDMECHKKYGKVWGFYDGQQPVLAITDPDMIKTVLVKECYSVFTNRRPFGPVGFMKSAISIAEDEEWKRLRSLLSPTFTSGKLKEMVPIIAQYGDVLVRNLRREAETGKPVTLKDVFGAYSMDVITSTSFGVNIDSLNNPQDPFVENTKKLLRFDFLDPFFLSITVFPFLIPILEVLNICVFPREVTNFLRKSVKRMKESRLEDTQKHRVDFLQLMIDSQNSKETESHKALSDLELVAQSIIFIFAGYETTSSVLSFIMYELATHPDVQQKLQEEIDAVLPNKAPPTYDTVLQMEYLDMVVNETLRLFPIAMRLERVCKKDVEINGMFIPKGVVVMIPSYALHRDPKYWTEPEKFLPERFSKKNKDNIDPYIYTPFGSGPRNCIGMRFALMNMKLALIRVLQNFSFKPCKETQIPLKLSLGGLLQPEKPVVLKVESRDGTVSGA

Cytochrome P450 2D6 = Cytochrome P450 2D6 (Homo sapiens, UniProt P10635); assay: Inhibition of CYP2D6 in human liver microsomes using bufuralol as substrate after 10 mins in presence of NADPH by LC/MS/MS analysis; assay type: ADME
Cytochrome P450 2D6, sequence (P10635 whole entry): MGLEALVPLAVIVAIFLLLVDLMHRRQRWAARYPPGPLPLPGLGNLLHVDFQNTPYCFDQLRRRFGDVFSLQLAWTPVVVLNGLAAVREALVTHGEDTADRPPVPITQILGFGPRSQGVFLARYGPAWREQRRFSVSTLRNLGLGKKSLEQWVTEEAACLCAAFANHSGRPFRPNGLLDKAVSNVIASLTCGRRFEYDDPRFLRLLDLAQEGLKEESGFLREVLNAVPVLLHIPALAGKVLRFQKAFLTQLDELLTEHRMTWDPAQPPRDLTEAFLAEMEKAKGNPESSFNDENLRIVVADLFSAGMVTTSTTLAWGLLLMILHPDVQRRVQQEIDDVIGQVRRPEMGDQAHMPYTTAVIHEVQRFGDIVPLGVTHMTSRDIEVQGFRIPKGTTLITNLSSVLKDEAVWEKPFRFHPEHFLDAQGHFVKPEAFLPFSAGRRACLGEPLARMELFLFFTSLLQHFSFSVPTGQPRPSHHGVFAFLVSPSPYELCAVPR

Cytochrome P450 2A6 = target: T1, Cytochrome P450 2A6 (Homo sapiens, UniProt P11509); assay: Inhibition of CYP2A6 in human liver microsomes using coumarin as substrate after 10 mins in presence of NADPH by LC/MS/MS analysis; assay type: ADME
T1 sequence (P11509 whole entry): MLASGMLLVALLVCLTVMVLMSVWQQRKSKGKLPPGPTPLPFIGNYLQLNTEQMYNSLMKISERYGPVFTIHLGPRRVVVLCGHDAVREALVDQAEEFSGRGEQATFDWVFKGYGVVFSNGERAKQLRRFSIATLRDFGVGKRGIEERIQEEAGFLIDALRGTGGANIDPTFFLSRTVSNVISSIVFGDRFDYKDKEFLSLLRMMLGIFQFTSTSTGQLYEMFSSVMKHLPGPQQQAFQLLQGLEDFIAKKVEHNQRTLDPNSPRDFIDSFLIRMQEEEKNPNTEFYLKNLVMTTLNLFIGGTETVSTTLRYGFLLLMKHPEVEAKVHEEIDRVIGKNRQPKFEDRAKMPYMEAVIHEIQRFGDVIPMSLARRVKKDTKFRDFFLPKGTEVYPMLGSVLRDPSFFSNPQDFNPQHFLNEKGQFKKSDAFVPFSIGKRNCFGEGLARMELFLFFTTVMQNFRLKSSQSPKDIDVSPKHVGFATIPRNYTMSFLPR

[3] = target: Metabotropic glutamate receptor 5 (Homo sapiens, UniProt P41594); assay: Negative allosteric modulation of human recombinant mGluR5 expressed in HEK293 cells assessed as L-glutamate-induced intracellular calcium mobilization incubated for 20 mins before L-glutamate addition; assay type: functional, cell-based
Metabotropic glutamate receptor 5, sequence (P41594 whole entry): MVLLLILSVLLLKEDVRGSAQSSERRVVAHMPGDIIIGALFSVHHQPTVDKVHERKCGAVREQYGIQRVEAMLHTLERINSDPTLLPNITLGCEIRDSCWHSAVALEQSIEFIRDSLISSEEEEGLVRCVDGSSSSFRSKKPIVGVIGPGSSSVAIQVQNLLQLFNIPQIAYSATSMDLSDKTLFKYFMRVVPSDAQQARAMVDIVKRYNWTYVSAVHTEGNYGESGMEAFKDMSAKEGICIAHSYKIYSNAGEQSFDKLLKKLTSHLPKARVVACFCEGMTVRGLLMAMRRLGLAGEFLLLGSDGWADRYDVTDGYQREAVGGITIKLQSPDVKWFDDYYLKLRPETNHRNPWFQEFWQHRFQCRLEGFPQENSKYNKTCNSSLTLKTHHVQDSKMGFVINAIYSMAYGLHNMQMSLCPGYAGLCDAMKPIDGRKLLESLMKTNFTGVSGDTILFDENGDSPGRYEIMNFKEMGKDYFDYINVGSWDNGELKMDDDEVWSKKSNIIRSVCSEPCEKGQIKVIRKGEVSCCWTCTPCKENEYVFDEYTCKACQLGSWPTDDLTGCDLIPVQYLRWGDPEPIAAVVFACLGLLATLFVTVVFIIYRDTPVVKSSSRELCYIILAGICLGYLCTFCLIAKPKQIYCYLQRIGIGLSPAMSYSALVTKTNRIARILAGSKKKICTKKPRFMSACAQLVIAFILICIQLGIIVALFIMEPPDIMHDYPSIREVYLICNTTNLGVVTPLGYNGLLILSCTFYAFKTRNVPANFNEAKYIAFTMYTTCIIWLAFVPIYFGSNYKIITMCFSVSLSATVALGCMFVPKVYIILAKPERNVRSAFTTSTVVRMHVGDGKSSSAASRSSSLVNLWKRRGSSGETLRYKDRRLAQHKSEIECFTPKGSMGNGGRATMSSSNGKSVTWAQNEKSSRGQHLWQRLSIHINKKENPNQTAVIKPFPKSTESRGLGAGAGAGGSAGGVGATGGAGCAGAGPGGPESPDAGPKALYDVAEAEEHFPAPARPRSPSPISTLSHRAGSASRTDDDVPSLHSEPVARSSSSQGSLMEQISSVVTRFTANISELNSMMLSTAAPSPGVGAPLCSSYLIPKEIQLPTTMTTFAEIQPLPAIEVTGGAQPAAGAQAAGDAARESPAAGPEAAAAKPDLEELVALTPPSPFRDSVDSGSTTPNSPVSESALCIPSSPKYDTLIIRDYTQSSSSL

[4] = Metabolic stability in rat liver microsomes assessed as compound remaining at 1 uM after 30 mins in presence of NADPH by LC/MS/MS analysis; assay type: ADME, Microsome; details: read-out: Stability
Cytochrome P450 1A2 = target: T2, Cytochrome P450 1A2 (Homo sapiens, UniProt P05177); assay: Inhibition of CYP1A2 in human liver microsomes using phenacetin as substrate after 10 mins in presence of NADPH by LC/MS/MS analysis; assay type: ADME
T2 sequence (P05177 whole entry): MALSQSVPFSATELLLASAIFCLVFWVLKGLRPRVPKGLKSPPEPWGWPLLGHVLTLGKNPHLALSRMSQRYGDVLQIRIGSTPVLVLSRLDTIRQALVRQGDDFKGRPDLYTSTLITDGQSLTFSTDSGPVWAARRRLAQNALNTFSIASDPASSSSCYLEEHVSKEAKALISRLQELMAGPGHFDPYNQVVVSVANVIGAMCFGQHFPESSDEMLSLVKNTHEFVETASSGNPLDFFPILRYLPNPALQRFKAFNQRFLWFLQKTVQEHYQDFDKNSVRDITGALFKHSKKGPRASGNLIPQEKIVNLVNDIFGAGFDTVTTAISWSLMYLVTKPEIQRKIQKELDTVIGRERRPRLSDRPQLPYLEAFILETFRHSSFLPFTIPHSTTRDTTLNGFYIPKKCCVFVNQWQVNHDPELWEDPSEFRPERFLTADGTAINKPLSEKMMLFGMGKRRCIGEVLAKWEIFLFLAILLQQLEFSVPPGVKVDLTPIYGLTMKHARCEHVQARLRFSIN

Cytochrome P450 2C8 = target: T3, Cytochrome P450 2C8 (Homo sapiens, UniProt P10632); assay: Inhibition of CYP2C8 in human liver microsomes using amodiaquin as substrate after 10 mins in presence of NADPH by LC/MS/MS analysis; assay type: ADME
T3 sequence (P10632 whole entry): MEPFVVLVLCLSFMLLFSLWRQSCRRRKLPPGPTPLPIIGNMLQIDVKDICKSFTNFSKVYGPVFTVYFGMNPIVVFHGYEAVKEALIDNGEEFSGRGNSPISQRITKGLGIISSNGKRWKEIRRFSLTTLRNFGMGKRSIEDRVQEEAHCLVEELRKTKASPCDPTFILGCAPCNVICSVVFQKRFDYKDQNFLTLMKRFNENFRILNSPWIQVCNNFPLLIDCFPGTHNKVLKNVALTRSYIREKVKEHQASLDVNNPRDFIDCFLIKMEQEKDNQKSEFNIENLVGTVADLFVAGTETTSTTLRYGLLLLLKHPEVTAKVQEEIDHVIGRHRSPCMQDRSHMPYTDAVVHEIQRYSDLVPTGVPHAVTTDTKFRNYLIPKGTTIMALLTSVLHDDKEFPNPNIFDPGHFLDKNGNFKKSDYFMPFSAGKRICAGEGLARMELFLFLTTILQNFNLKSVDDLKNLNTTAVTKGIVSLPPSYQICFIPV

[5] = Metabolic stability in human liver microsomes assessed as compound remaining at 1 uM after 30 mins in presence of NADPH by LC/MS/MS analysis; assay type: ADME, Microsome; details: read-out: Stability

Cytochrome P450 2C19, sequence (P33261 whole entry): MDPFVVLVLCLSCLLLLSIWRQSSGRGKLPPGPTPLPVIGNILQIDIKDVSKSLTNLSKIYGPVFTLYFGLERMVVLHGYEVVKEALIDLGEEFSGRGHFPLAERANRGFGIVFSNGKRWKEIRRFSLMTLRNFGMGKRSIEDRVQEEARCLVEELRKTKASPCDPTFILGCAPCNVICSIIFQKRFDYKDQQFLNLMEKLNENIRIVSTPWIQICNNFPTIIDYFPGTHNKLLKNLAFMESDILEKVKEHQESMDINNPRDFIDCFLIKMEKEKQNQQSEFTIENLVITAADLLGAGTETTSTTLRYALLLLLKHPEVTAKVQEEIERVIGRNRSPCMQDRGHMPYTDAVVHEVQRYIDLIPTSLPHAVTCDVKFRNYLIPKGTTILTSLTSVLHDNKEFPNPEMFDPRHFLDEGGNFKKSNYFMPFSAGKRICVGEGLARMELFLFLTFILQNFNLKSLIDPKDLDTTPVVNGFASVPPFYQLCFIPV

O=C(c1ccccc1)N1CCn2nc(-c3ccccn3)cc2C1
solubility [1]: > 100 µg/mL
IC50 (Cytochrome P450 2C19): > 50000 nM
solubility [2]: > 100 µg/mL
IC50 (Cytochrome P450 2C9): > 50000 nM
IC50 (Cytochrome P450 3A4): > 50000 nM
IC50 (Cytochrome P450 2D6): > 50000 nM
IC50 (Cytochrome P450 2A6): > 50000 nM
IC50 [3]: 235 nM
remaining at 0.5 h, 1 µM [4]: 95%
IC50 (Cytochrome P450 1A2): > 50000 nM
IC50 (Cytochrome P450 2C8): > 50000 nM
remaining at 0.5 h, 1 µM [5]: 92%

O=C(c1cccc(F)c1)N1CCn2nc(-c3ccc(F)cn3)cc2C1
IC50 [3]: 257 nM

Cc1cccc(C(=O)N2CCn3nc(-c4ccc(F)cn4)cc3C2)c1
IC50 [3]: 150 nM

CC(C)(C)c1cc2n(n1)CCN(C(=O)c1ccc3ccccc3c1)C2
IC50 [3]: 477 nM

O=C(c1ccccc1)N1CCn2nc(-c3ccc(Cl)cn3)cc2C1
IC50 [3]: 201 nM

O=C(c1ccccc1)N1CCn2nc(-c3cccnc3)cc2C1
IC50 [3]: > 10000 nM

Reference: ChEMBL document CHEMBL4425158, “Synthesis, structure-activity relationships and biological evaluation of 4,5,6,7-tetrahydropyrazolopyrazines as metabotropic glutamate receptor 5 negative allosteric modulators” (Bioorg Med Chem Lett, 2016)
